Assay results from ChEMBL document CHEMBL3885881, “DrugMatrix”.

Organism: Rattus norvegicus
Assay: DrugMatrix - Regimen: Daily Repeat
Type: toxicity, organism-based, Sprague-Dawley
Design: regimen Daily Repeat, gender Male, age 6-8 weeks
Settings: in vivo, iv, vehicle 100 % SALINE; for ABSOLUTE BASOPHIL / ABSOLUTE EOSINOPHIL / ABSOLUTE LYMPHOCYTE / ABSOLUTE MONOCYTE / ABSOLUTE SEGMENTED NEUTROPHIL / BASOPHIL / EOSINOPHIL / ERYTHROCYTE COUNT / HEMATOCRIT / HEMOGLOBIN / LEUKOCYTE COUNT / LYMPHOCYTE / MEAN CORPUSCULAR HEMOGLOBIN / MEAN CORPUSCULAR HEMOGLOBIN CONCENTRATION / MEAN CORPUSCULAR VOLUME / MONOCYTE / NEUTROPHIL / NUCLEATED RED BLOOD CELLS / PLATELET COUNT: tissue Blood; for ALANINE AMINOTRANSFERASE / ALBUMIN / ALKALINE PHOSPHATASE / ASPARTATE AMINOTRANSFERASE / BLOOD UREA NITROGEN / CARBON DIOXIDE / CHLORIDE / CHOLESTEROL / CREATINE PHOSPHOKINASE / CREATININE / GLUCOSE / LACTATE DEHYDROGENASE / LIPASE / PHOSPHORUS / POTASSIUM / SODIUM / TOTAL BILIRUBIN / TOTAL PROTEIN / URIC ACID: tissue Plasma
[1] = 23 mg/kg, 120 h, dose level Low, time 5 day
[2] = 487 mg/kg, 72 h, dose level High, time 3 day
[3] = 487 mg/kg, 120 h, dose level High, time 5 day

Nc1ccn([C@@H]2O[C@H](CO)[C@@H](O)[C@@H]2O)c(=O)n1 [CYTARABINE]
ABSOLUTE BASOPHIL [1]: 0 CELLS/uL | ABSOLUTE EOSINOPHIL [1]: 0 CELLS/uL | ABSOLUTE LYMPHOCYTE [1]: 5539 CELLS/uL | ABSOLUTE MONOCYTE [1]: 16.67 CELLS/uL | ABSOLUTE SEGMENTED NEUTROPHIL [1]: 244.33 CELLS/uL | BASOPHIL [1]: 0% | EOSINOPHIL [1]: 0% | ERYTHROCYTE COUNT [1]: 5.12 x10E6/uL | HEMATOCRIT [1]: 33.83% | HEMOGLOBIN [1]: 13.53 G/DL | LEUKOCYTE COUNT [1]: 5.8 x10E3/uL | LYMPHOCYTE [1]: 95% | MEAN CORPUSCULAR HEMOGLOBIN [1]: 26.47 pg | MEAN CORPUSCULAR HEMOGLOBIN CONCENTRATION [1]: 40 G/DL | MEAN CORPUSCULAR VOLUME [1]: 66.2 fL | MONOCYTE [1]: 0.33% | NEUTROPHIL [1]: 4.67% | NUCLEATED RED BLOOD CELLS [1]: 0 /100WBC | PLATELET COUNT [1]: 1095.67 x10E3/uL | ALANINE AMINOTRANSFERASE [1]: 41.67 u/L | ALBUMIN [1]: 4.1 G/DL | ALKALINE PHOSPHATASE [1]: 306.67 u/L | ASPARTATE AMINOTRANSFERASE [1]: 78.33 u/L | BLOOD UREA NITROGEN [1]: 12.67 mg/dL | CARBON DIOXIDE [1]: 26.33 mmol/L | CHLORIDE [1]: 99.33 MEQ/L | CHOLESTEROL [1]: 67.67 mg/dL | CREATINE PHOSPHOKINASE [1]: 261.33 u/L | CREATININE [1]: 0.21 mg/dL | GLUCOSE [1]: 172 mg/dL | LACTATE DEHYDROGENASE [1]: 75 u/L | LIPASE [1]: 11.33 u/L | PHOSPHORUS [1]: 10.17 mg/dL | POTASSIUM [1]: 5.08 MEQ/L | SODIUM [1]: 144.13 MEQ/L | TOTAL BILIRUBIN [1]: 0.17 mg/dL | TOTAL PROTEIN [1]: 5.77 G/DL | URIC ACID [1]: 0.87 mg/dL | ABSOLUTE BASOPHIL [2]: 0 CELLS/uL | ABSOLUTE EOSINOPHIL [2]: 62 CELLS/uL | ABSOLUTE LYMPHOCYTE [2]: 7623.33 CELLS/uL | ABSOLUTE MONOCYTE [2]: 62 CELLS/uL | ABSOLUTE SEGMENTED NEUTROPHIL [2]: 686 CELLS/uL | BASOPHIL [2]: 0% | EOSINOPHIL [2]: 0.67% | ERYTHROCYTE COUNT [2]: 4.4 x10E6/uL | HEMATOCRIT [2]: 28.67% | HEMOGLOBIN [2]: 11.3 G/DL | LEUKOCYTE COUNT [2]: 8.43 x10E3/uL | LYMPHOCYTE [2]: 91.33% | MEAN CORPUSCULAR HEMOGLOBIN [2]: 25.7 pg | MEAN CORPUSCULAR HEMOGLOBIN CONCENTRATION [2]: 39.4 G/DL | MEAN CORPUSCULAR VOLUME [2]: 65.13 fL | MONOCYTE [2]: 0.67% | NEUTROPHIL [2]: 7.33% | NUCLEATED RED BLOOD CELLS [2]: 0 /100WBC | PLATELET COUNT [2]: 1093.33 x10E3/uL | ALANINE AMINOTRANSFERASE [2]: 45.67 u/L | ALBUMIN [2]: 4.07 G/DL | ALKALINE PHOSPHATASE [2]: 302.33 u/L | ASPARTATE AMINOTRANSFERASE [2]: 81.33 u/L | BLOOD UREA NITROGEN [2]: 12 mg/dL | CARBON DIOXIDE [2]: 31 mmol/L | CHLORIDE [2]: 101.67 MEQ/L | CHOLESTEROL [2]: 77.67 mg/dL | CREATINE PHOSPHOKINASE [2]: 242.33 u/L | CREATININE [2]: 0.19 mg/dL | GLUCOSE [2]: 168.33 mg/dL | LACTATE DEHYDROGENASE [2]: 55.33 u/L | LIPASE [2]: 10.67 u/L | PHOSPHORUS [2]: 10.87 mg/dL | POTASSIUM [2]: 5.4 MEQ/L | SODIUM [2]: 145.23 MEQ/L | TOTAL BILIRUBIN [2]: 0.2 mg/dL | TOTAL PROTEIN [2]: 5.93 G/DL | URIC ACID [2]: 0.8 mg/dL | ABSOLUTE BASOPHIL [3]: 0 CELLS/uL | ABSOLUTE EOSINOPHIL [3]: 10 CELLS/uL | ABSOLUTE LYMPHOCYTE [3]: 3604.33 CELLS/uL | ABSOLUTE MONOCYTE [3]: 0 CELLS/uL | ABSOLUTE SEGMENTED NEUTROPHIL [3]: 152.33 CELLS/uL | BASOPHIL [3]: 0% | EOSINOPHIL [3]: 0.33% | ERYTHROCYTE COUNT [3]: 4.2 x10E6/uL | HEMATOCRIT [3]: 26.53% | HEMOGLOBIN [3]: 10.7 G/DL | LEUKOCYTE COUNT [3]: 3.77 x10E3/uL | LYMPHOCYTE [3]: 95.67% | MEAN CORPUSCULAR HEMOGLOBIN [3]: 25.43 pg | MEAN CORPUSCULAR HEMOGLOBIN CONCENTRATION [3]: 40.37 G/DL | MEAN CORPUSCULAR VOLUME [3]: 63.07 fL | MONOCYTE [3]: 0% | NEUTROPHIL [3]: 4% | NUCLEATED RED BLOOD CELLS [3]: 0 /100WBC | PLATELET COUNT [3]: 1216.67 x10E3/uL | ALANINE AMINOTRANSFERASE [3]: 41.67 u/L | ALBUMIN [3]: 4.1 G/DL | ALKALINE PHOSPHATASE [3]: 275.33 u/L | ASPARTATE AMINOTRANSFERASE [3]: 82.33 u/L | BLOOD UREA NITROGEN [3]: 13.33 mg/dL | CARBON DIOXIDE [3]: 26 mmol/L | CHLORIDE [3]: 100.67 MEQ/L | CHOLESTEROL [3]: 71.33 mg/dL | CREATINE PHOSPHOKINASE [3]: 326 u/L | CREATININE [3]: 0.23 mg/dL | GLUCOSE [3]: 159 mg/dL | LACTATE DEHYDROGENASE [3]: 65 u/L | LIPASE [3]: 11 u/L | PHOSPHORUS [3]: 9.23 mg/dL | POTASSIUM [3]: 5.41 MEQ/L | SODIUM [3]: 145.37 MEQ/L | TOTAL BILIRUBIN [3]: 0.2 mg/dL | TOTAL PROTEIN [3]: 5.7 G/DL | URIC ACID [3]: 0.57 mg/dL
